{
  "source": "patent US10428151B2",
  "about": "“Treatment of hematologic malignancies with an anti-CXCR4 antibody” (BRISTOL-MYERS SQUIBB COMPANY, priority 2011, dated 2019)",
  "key": {"[1]": {"tested_on": "human peripheral blood mononuclear cells (PBMCs)", "assay": "Flow cytometry binding to human PBMC subsets", "conditions": "33 μg/ml; CD3+, CD20+, CD11b+, CD14+ subsets; vs isotype-matched control", "text": "Human PBMCs were isolated by standard methods and different cellular subsets were isolated by FACS. In particular, the following cellular subsets were isolated: (i) CD3^+, (ii) CD20^+; (iii) CD11b^+ and (iv) CD14^+."}, "Ramos cells [2]": {"tested_on": "Ramos cells", "assay": "Ramos cell proliferation, Cell-Titer-Glo", "type": "cell-based, human", "conditions": "40 nM; 72 hours; compared to isotype control", "experimental": "Ramos cells were suspended at 1×10^5 cells/mL in growth media, incubated with the relevant antibodies, including isotype controls, and other test agents and cultured for 72 hours at 37° C. Cell-Titer-Glo (Promega) was added to wells, mixed, and incubated at room temperature for 10 minutes. The plate was read on a GloMax Luminometer (Promega)."}, "Ramos cells [3]": {"tested_on": "Ramos cells", "assay": "Ramos subcutaneous tumor cell model", "type": "in vivo, mouse", "conditions": "IP day 0 and 7; 15 mg/kg (Fab′ 10 mg/kg, also day 3 and 10)", "text": "In this example, the ability of the anti-CXCR4 human antibodies to inhibit proliferation of an established solid tumor in vivo was examined using a Ramos subcutaneous tumor cell model. In this assay, 10×10^6 Ramos cells/mouse were implanted into the flank region of each mouse and allowed to grow to a mean size of 40 mm^3, calculated by length×width×height/2 of the tumors. The mice then received an intraperitoneal (IP) injection of a first dose of antibody (designated as day 0 of treatment) and received a second IP dose of antibody on day 7. Mice treated with a Fab′ fragment antibody also received IP antibody doses on day 3 and day 10. […] Tumor volume and mouse body weight were measured at regular intervals (approximately 2-3 times/week) between day 0 and day 30 post dosing. The results of the experiment are presented in FIGS. 12A, 12B and 12C, which show mean tumor volume (FIG. 12A), median tumor volume (FIG. 12B) and median % body weight change (FIG. 12C). […] All treatments were well-tolerated as indicated by no significant body weight change. The differences in body weights between treatments were most likely due to the weights of the tumors."}, "parental R1610 cells": {"tested_on": "parental R1610 cells", "assay": "Apoptosis of parental R1610 cells, Annexin V-FITC/PI", "type": "cell-based, hamster", "conditions": "24 hours", "experimental": "MDX-1338 or isotype control were added to CXCR4-transfected cells (A) or R1610 parental cells (B) and stained with Annexin V-FITC and PI. The percentages of cells that were positive for Annexin V only or doubly positive for both Annexin V and PI double positive are illustrated.\nThe percent of cells that are positive for Annexin V only or both Annexin V and PI double positive was determined."}, "[4]": {"tested_on": "MDA-MB231 human breast cancer cells", "assay": "MDA-MB231 breast cancer xenograft", "type": "in vivo, mouse", "text": "In one experiment, 7.5×10^6 MDA-MB231 human breast cancer cells/mouse were implanted into the flank region of each mouse and allowed to grow to a mean size of 100 mm^3, calculated by length×width×height/2 of the tumors, which was day 7 post-implantation. The mice were randomized into different treatment groups and received an intraperitoneal (IP) injection of a first dose of antibody on day 7 post-implantation, received a second IP dose of antibody on day 14 post-implantation and then received a third dose on day 46 post-implantation. […] Tumor volumes were measured at regular intervals and the mean and median tumor volume determined for each treatment group at each interval."}, "[5]": {"tested_on": "Namalwa Burkitt's lymphoma cells", "assay": "Namalwa subcutaneous xenograft", "type": "in vivo, mouse", "experimental": "(§1) Additional subcutaneous xenograft tumor models were tested for the ability of anti-CXCR4 antibodies to inhibit tumor growth, in experiments similar to those described above and in Example 9. […] Although the tumor cells in vivo were stainable by the mAb by immunohistochemistry, it is unclear at what stage of their tumor growth CXCR4 began to be expressed."}, "[6]": {"tested_on": "NIH-H226 lung carcinoma cells", "assay": "NIH-H226 subcutaneous xenograft", "type": "in vivo, mouse", "experimental": "as §1"}, "HL-60 cells": {"tested_on": "HL-60 cells", "assay": "HL-60 AML xenograft in SCID mice", "type": "in vivo", "conditions": "for median tumor growth inhibition: Day 27, 10 mg/kg/dose", "text": "To assess the antibody's efficacy in AML, two cytarabine-resistant mouse xenograft models, HL-60 and Nomo-1 were used. CXCR4 expression in each cell line was confirmed by FACS staining (FIG. 4A). SCID mice were subcutaneously implanted with 10 million HL-60 cells as described in Example 14."}, "MOLP-8 cells": {"tested_on": "MOLP-8 cells", "assay": "MOLP-8 MM xenograft in SCID mice", "type": "in vivo", "experimental": "In all the experiments, the mice were injected intraperitoneally on Days 0 and 7 with an IgG4 isotype control and a PBS vehicle control."}, "RPMI-8226 cells": {"tested_on": "RPMI-8226 cells", "assay": "RPMI-8226 MM xenograft in SCID mice", "type": "in vivo", "experimental": "The mice were randomized (n=8) when the tumor volume reached approximately 20 mm^3, dosed on Days 0, 3, 7, 10 and 14 with MDX-1338 (10 mg/kg/dose) alone or in combination with 50 mg/kg lenalidomide or in combination with 0.8 mg/kg bortezomib."}, "CLL cells": {"tested_on": "CLL cells", "conditions": "Kashyap et al., 2012; cited from earlier work"}, "[7]": {"tested_on": "Twist, Snail, Slug, E-Cadherin", "conditions": "Roccaro et al., 2012; cited from earlier work"}, "melanoma": {"tested_on": "melanoma", "conditions": "melanoma xenograft model; compared to vehicle-treated mice; Roccaro et al., 2012; cited from earlier work"}, "MM cells": {"tested_on": "MM cells", "conditions": "Roccaro et al., 2012; cited from earlier work"}, "[8]": {"conditions": "Day 59 post-implantation, 15 mg/kg IP"}},
  "note": "Several values for one entry are separate records, joined by “and”; a condition that tells them apart may be missing. Identical values can stand only once.",
  "data": [
    {"substance": "BMS-936564: fully human anti-CXCR4 monoclonal antibody; VH SEQ ID NO: 25, VL SEQ ID NO: 29", "values": [
      {"measurement": "binding to PBMC subsets", "setting": "[1]", "result": "capable of binding effectively to each of the four subsets"},
      {"measurement": "maximum inhibition of Ramos cell proliferation", "setting": "Ramos cells [2]", "result": "about 50%"},
      {"measurement": "tumor cell growth (tumor volume)", "setting": "Ramos cells [3]", "result": "significantly inhibited tumor cell growth"},
      {"measurement": "apoptosis of parental R1610 cells", "setting": "parental R1610 cells", "result": "did not exhibit apoptosis"},
      {"measurement": "Mean tumor volume", "setting": "[4]; Day 52 post-implantation, 15 mg/kg IP", "result": 79, "unit": "mm^3"},
      {"measurement": "Median tumor volume", "setting": "[4]; [8]", "result": 108, "unit": "mm^3"},
      {"measurement": "TGI (%) (median)", "setting": "[4]; [8]", "result": 52, "unit": "%"},
      {"measurement": "mice tumor free", "setting": "[4]; day 59, n=9", "result": "one"},
      {"measurement": "% Tumor Growth Inhibition (Monotherapy)", "setting": "[5]", "result": 66, "unit": "%"},
      {"measurement": "tumor growth inhibition", "setting": "[5]; 3 mg/kg", "result": "approximately 70%"},
      {"measurement": "tumor growth inhibition", "setting": "[6]", "result": "no tumor growth inhibition"},
      {"measurement": "median tumor growth inhibition", "setting": "HL-60 cells; compared to isotype", "result": 88, "unit": "%"},
      {"measurement": "median tumor growth inhibition", "setting": "HL-60 cells; compared to vehicle", "result": 83, "unit": "%"},
      {"measurement": "% Tumor Growth Inhibition (Monotherapy)", "setting": "HL-60 cells; HL60", "result": "60% and 82%"},
      {"measurement": "delay of mean tumor growth", "setting": "MOLP-8 cells; Day 25, 10 mg/kg/dose, compared to isotype antibody control, 10 mg/kg", "result": "66% and 56%"},
      {"measurement": "tumor growth inhibition", "setting": "MOLP-8 cells; MOLP8", "result": "MDX-1338 = 56%"},
      {"measurement": "% Tumor Growth Inhibition (Monotherapy)", "setting": "MOLP-8 cells; MOLP-8", "result": 66, "unit": "%"},
      {"measurement": "mice remained at end of study", "setting": "MOLP-8 cells; day 42", "result": "5 out of 8"},
      {"measurement": "delay of mean tumor growth", "setting": "RPMI-8226 cells; Day 44, 10 mg/kg/dose, compared to vehicle control", "result": 53, "unit": "%"},
      {"measurement": "mean tumor growth inhibition", "setting": "RPMI-8226 cells; Day 44, compared to isotype control, MDX-1338 10 mg/kg, lenalidomide 50 mg/kg, bortezomib 0.8 mg/kg", "result": 61, "unit": "%"},
      {"measurement": "tumor growth inhibition", "setting": "RPMI-8226 cells; RPMI-8226", "result": "MDX-1338 = 61%"},
      {"measurement": "inhibition of CXCL12-mediated F-actin polymerization in CLL cells", "setting": "CLL cells", "result": "at lower concentrations than with AMD-3100"},
      {"measurement": "effect on EMT-related proteins", "setting": "[7]", "result": "inhibits the EMT-related proteins Twist, Snail and Slug, and up-regulates E-Cadherin"},
      {"measurement": "number of metastasis", "setting": "melanoma", "result": "reduced number of metastasis"},
      {"measurement": "migration of MM cells toward CXCL12 and primary MM BMSCs", "setting": "MM cells", "result": "inhibited migration"}
    ]}
  ]
}
